The values that follow come from publication PMC10803265 (Nature Medicine, 2023).

“Also recorded” adds a separate entry of the source. Like-named read-outs stand apart in the source and are kept apart here.

In data set [1] the test system is P-gp. More on the design: method as in GDC-6036 Investigator's Brochure. Particulars: in vitro; ref GDC-6036 Investigator's Brochure; cited from earlier work.
The conditions of data set [2]: cited from earlier work.
The test system of data set [3] is pERK, pS6, DUSP6, SPRY4 in KRAS G12C-positive cancer cell lines. More on the design: method as in GDC-6036 Investigator's Brochure. Particulars: ref GDC-6036 Investigator's Brochure; cited from earlier work.
For data set [4], the system named is KRAS G12C. Set-up: method as in earlier work. Particulars: in vitro; cited from earlier work.
Data set [5] in a line: Divarasib plasma pharmacokinetics, non-compartmental analysis. Format: in vivo, human. To be noted: divarasib 400 mg QD in combination with cetuximab (250 mg/m^2 QW), n=21; C1D8 or C2D1 AUC0-24 / C1D1 AUC0-24; mean ± s.d. On the procedure: Pharmacokinetic parameters were estimated using non-compartmental analysis of concentration–time data. Plasma samples were evaluated for divarasib using a validated liquid chromatography tandem mass spectrometry assay. […] A stable labeled internal standard was used. Pharmacokinetic non-compartmental analysis was performed with nominal time using Phoenix WinNonlin (Certara USA, version 8.3). Graphical visualization was done using R (version 4.2.0; R Foundation for Statistical Computing). Pharmacokinetic samples at steady state were collected before dose, and at 0.5, 1, 2, 3, 4 and 8 h after dose on cycle 1 day 8 (C1D8) or on cycle 2 day 1 (C2D1).

The test system of data set [6] is xenograft models of KRAS G12C-positive lung tumors. Set-up: method as in GDC-6036 Investigator's Brochure. To be noted: nonclinical xenograft models of KRAS G12C-positive lung tumors; ref GDC-6036 Investigator's Brochure; cited from earlier work.
For data set [7], the system named is mice. More on the design: method as in GDC-6036 Investigator's Brochure. To be noted: gavage, attributed to chemical irritation by the higher concentration drug formulation, ref GDC-6036 Investigator's Brochure; cited from earlier work.
Data set [8] deals with cynomolgus monkeys. Set-up: method as in GDC-6036 Investigator's Brochure. To be noted: ref GDC-6036 Investigator's Brochure, cited from earlier work.
For data set [9], the system named is BCRP. Set-up: method as in GDC-6036 Investigator's Brochure. To be noted: in vitro; ref GDC-6036 Investigator's Brochure; cited from earlier work.
Data set [10] relates to KRAS G12C-positive CRC. Particulars: single-agent divarasib at 400 mg, patients with CRC; cited from earlier work.
The test system of data set [11] is KRAS G12C. To be noted: single-agent divarasib; patients with detectable KRAS G12C ctDNA at C1D1; cited from earlier work.
The subject of data set [12] is patients with KRAS G12C-positive CRC.
Experimental: Preliminary antitumor activity was determined by the investigator according to RECIST v1.1. […] PFS was defined as the time from first treatment to the first occurrence of disease progression or death from any cause during the study (whichever occurred first).
The test system of data set [13] is CYP3A4. More on the design: method as in GDC-6036 Investigator's Brochure. Particulars: human hepatocyte culture; ref GDC-6036 Investigator's Brochure; cited from earlier work.
Data set [14] has as its system non-small cell lung cancer. To be noted: cited from earlier work.
The subject of data set [15] is patients. To be noted: cited from earlier work.
[16] abbreviates: divarasib 400 mg QD single agent, multiple doses (C1D8 or C2D1), N 76, mean ± s.d.
Setting [17] is: in combination with cetuximab, 29 patients.
[18] abbreviates: single-agent divarasib at 400 mg.
Setting [19] is: AMG 510 all events, n=129, MRTX849 related only, n=17, ref Janne et al. 2019, Hong et al. 2020.
[20] abbreviates: Phase I trial, one patient, ref Hong et al. 2020.

Consider `C=CC(=O)N1CCN(c2nc(OC[C@@H]3CCCN3C)nc3c(F)c(-c4nc(N)cc(C)c4C(F)(F)F)c(Cl)cc23)[C@@H](C)C1` [divarasib], for which, in data set [1], the P-gp transporter inhibition entry is recorded as “inhibit”. Besides, in data set [2] (setting [16]), the AUC0-24 was 9130 ± 3160 ng·h/mL and the Cmax (usually the maximum level reached in the sampled fluid or tissue) is on record as 657 ± 185 ng/mL. The tmax in data set [2] (divarasib 400 mg QD single agent, multiple doses (C1D8 or C2D1), N 76, median (range)) is 2.0 (0.5-8.0) hr. Further, the RAUC0-24 in [2] (divarasib 400 mg QD single agent, n=63, mean ± s.d.) is reported as 1.4 ± 0.4 fold. In addition, the mean half-life in data set [2] (single dose of divarasib 400 mg as a single agent) is given as 17.6 ± 2.7 h. The “downstream MAPK pathway components (pERK, pS6) and KRAS target genes (DUSP6, SPRY4)” value in [3] was “inhibited”. Moreover, the “potency compared to sotorasib and adagrasib” value in data set [4] is on record as 5 to 20 times. Further, the RAUC0-24 in data set [5] came out at 1.2 ± 0.4 fold. Also, the “single-agent activity on tumor growth” value in data set [6] is on record as “inhibits tumor growth”. Besides, the microscopic findings entry in data set [7] was “laryngeal necrosis”. The clinical signs result in data set [8] (4-week toxicology studies in cynomolgus monkeys) is “gastrointestinal intolerance with retching and vomiting”. Moreover, the hepatic transaminases entry in [8] (cynomolgus monkeys) is “minimal to mild transaminase elevation”. The BCRP transporter inhibition entry in data set [9] was “inhibit”. In [10], the “confirmed ORR” value is recorded as 35.9% and the “median PFS” value was 6.9 months. The “patients with KRAS G12C VAF decline to below 0.5% at C3D1” value in data set [11] is reported as 45.7%. In addition, the “diarrhea leading to divarasib dose reduction, patients” value in [12] (all grade 3) is 10.3%. The “vomiting leading to divarasib dose reduction, patients” value in [12] (grade 1) came to 3.4%. In addition, in [12] (setting [17]), the “TRAEs leading to divarasib dose interruptions, patients” value is recorded as 24.1%; the “TRAEs leading to divarasib dose modifications (interruption, reduction or withdrawal), patients” value is given as 34.5%; the “TRAEs leading to divarasib treatment withdrawals” value is given as “no divarasib treatment withdrawals; also recorded: No patients withdrew”. In data set [13], the “CYP3A4 mRNA induction” value was “induce messenger RNA (mRNA)” and the “CYP3A4 protein levels induction” value was “not protein levels”. In [14] (setting [18]), the “confirmed ORR” value is reported as 56.4% and the “median PFS” value is 13.1 months.

`C=CC(=O)N1CCN(c2nc(=O)n(-c3c(C)ccnc3C(C)C)c3nc(-c4c(O)cccc4F)c(F)cc23)[C@@H](C)C1` [sotorasib]: in [14] (phase 2 trial), the ORR was 37%. In addition, the ORR in data set [14] (phase 3 trial) was 28%. Also, in data set [15] (setting [19]), the “all grade adverse events: diarrhea” value is listed as 29.5%, the “all grade adverse events: nausea” value is reported as 20.9% and the “all grade adverse events: vomiting” value is reported as 17.8%. Also, the “Grade 3 treatment-related increased AST, patients” value in data set [15] (Phase I trial, 3 out of 129, ref Hong et al. 2020) was 2.3%. Moreover, the “Grade 3 treatment-related increased ALT, patients” value in [15] (Phase I trial, 6 out of 129, ref Hong et al. 2020) is 4.7%. In [15] (Phase I trial, 15 out of 129, ref Hong et al. 2020), the “any grade increased ALT, patients” value was 11.6%. Also, the “any grade increased AST, patients” value in data set [15] (Phase I trial, 17 out of 129, ref Hong et al. 2020) is reported as 13.2%. For the same compound, in data set [15] (setting [20]), the “Grade 4 treatment-related elevation of ALT, patients” value was 0.8%; the “discontinued treatment because of Grade 3 treatment-related increase in ALT and AST levels, patients” value was 0.8%.
